Measurements taken from publication PMC11111955, “Safety and efficacy evaluation of halicin as an effective drug for inhibiting intestinal infections” (Frontiers in Pharmacology, 2024).
Where two headings read alike, the source gives them in different places.

How the values were obtained:
[1] = system: Clostridium perfringens Type A; format: in vivo, BALB/c mice; details: intestinal anaerobic bacteria infection in mice
Mouse spermatozoa = details: for Abnormal ratio (%) / Number of sperm abnormality: male ICR mice, oral; for Number of sperm abnormality: of 5 × 1,000 sperms observed
mouse bone marrow cells = details: for Chromosome aberration (%) / Number of cells with chromosome aberration: ICR mice, oral; for Number of cells with chromosome aberration: of 5 × 100 cells at metaphase
[2] = system: bone marrow polychromatic erythrocytes; assay: Micronucleus experiment of mammalian bone marrow cells
[3] = Female mice, High-does (1009.1) mg/kg
[4] = Female mice, Low-does (252.3) mg/kg
[5] = Female mice, Medium-does (504.6) mg/kg
[6] = Male mice, High-does (1009.1) mg/kg
[7] = Male mice, Low-does (252.3) mg/kg
[8] = Male mice, Medium-does (504.6) mg/kg

Structure (SMILES): Nc1nnc(Sc2ncc([N+](=O)[O-])s2)s1 [halicin]
- efficacy compared with 10 mg/kg metronidazole [1]: much more effective
- proportions of abnormal sperm compared with the negative control group (Mouse spermatozoa; 1009.1, 504.6 and 252.3 mg/kg, p > 0.05): not significantly different
- Abnormal sperms counted ratio (%): Amorphous (Mouse spermatozoa; High-dose (1009.1) mg/kg): 23.6 ± 12.44%
- Abnormal sperms counted ratio (%): Banana shape (Mouse spermatozoa; High-dose (1009.1) mg/kg): 42.52 ± 12.57%
- Abnormal sperms counted ratio (%): Kinks tail (Mouse spermatozoa; High-dose (1009.1) mg/kg): 3.05 ± 2.79%
- Abnormal sperms counted ratio (%): Large round head (Mouse spermatozoa; High-dose (1009.1) mg/kg): 9.07 ± 4.02%
- Abnormal sperms counted ratio (%): No hook (Mouse spermatozoa; High-dose (1009.1) mg/kg): 15.6 ± 5.5%
- Abnormal sperms counted ratio (%): Two head (Mouse spermatozoa; High-dose (1009.1) mg/kg): 3.05 ± 2.79%
- Abnormal sperms counted ratio (%): Two tail (Mouse spermatozoa; High-dose (1009.1) mg/kg): 3.11 ± 2.84%
- Abnormal sperms counted ratio (%): Amorphous (Mouse spermatozoa; Low-dose (252.3) mg/kg): 39.81 ± 3%
- Abnormal sperms counted ratio (%): Banana shape (Mouse spermatozoa; Low-dose (252.3) mg/kg): 35.98 ± 3.94%
- Abnormal sperms counted ratio (%): Kinks tail (Mouse spermatozoa; Low-dose (252.3) mg/kg): 1.18 ± 2.63%
- Abnormal sperms counted ratio (%): Large round head (Mouse spermatozoa; Low-dose (252.3) mg/kg): 3.92 ± 3.58%
- Abnormal sperms counted ratio (%): No hook (Mouse spermatozoa; Low-dose (252.3) mg/kg): 16.61 ± 3.11%
- Abnormal sperms counted ratio (%): Two head (Mouse spermatozoa; Low-dose (252.3) mg/kg): 1.33 ± 2.98%
- Abnormal sperms counted ratio (%): Two tail (Mouse spermatozoa; Low-dose (252.3) mg/kg): 1.18 ± 2.63%
- Abnormal sperms counted ratio (%): Amorphous (Mouse spermatozoa; Medium-dose (504.6) mg/kg): 29.69 ± 2.67%
- Abnormal sperms counted ratio (%): Banana shape (Mouse spermatozoa; Medium-dose (504.6) mg/kg): 35.81 ± 4.52%
- Abnormal sperms counted ratio (%): Kinks tail (Mouse spermatozoa; Medium-dose (504.6) mg/kg): 2.44 ± 3.37%
- Abnormal sperms counted ratio (%): Large round head (Mouse spermatozoa; Medium-dose (504.6) mg/kg): 11.96 ± 0.96%
- Abnormal sperms counted ratio (%): No hook (Mouse spermatozoa; Medium-dose (504.6) mg/kg): 16.7 ± 2.71%
- Abnormal sperms counted ratio (%): Two head (Mouse spermatozoa; Medium-dose (504.6) mg/kg): 2.22 ± 3.04%
- Abnormal sperms counted ratio (%): Two tail (Mouse spermatozoa; Medium-dose (504.6) mg/kg): 1.18 ± 2.63%
- Abnormal ratio (%) (Mouse spermatozoa; High-dose (1009.1) mg/kg): 2.12 ± 0.38%
- Number of sperm abnormality (Mouse spermatozoa; High-dose (1009.1) mg/kg): 110
- Abnormal ratio (%) (Mouse spermatozoa; Low-dose (252.3) mg/kg): 1.56 ± 0.09%
- Number of sperm abnormality (Mouse spermatozoa; Low-dose (252.3) mg/kg): 78
- Abnormal ratio (%) (Mouse spermatozoa; Medium-dose (504.6) mg/kg): 1.68 ± 0.13%
- Number of sperm abnormality (Mouse spermatozoa; Medium-dose (504.6) mg/kg): 84
- teratogenic effect on bone marrow cells (mouse bone marrow cells; 252.3 mg/kg to 1009.1 mg/kg, p > 0.05 vs negative control): no significant teratogenic effect
- Chromosome aberration (%) (mouse bone marrow cells; High-does (1009.1) mg/kg): 1.4 ± 0.55%
- Number of cells with chromosome aberration (mouse bone marrow cells; High-does (1009.1) mg/kg): 7
- Chromosome aberration (%) (mouse bone marrow cells; Low-does (252.3) mg/kg): 1.4 ± 1.14%
- Number of cells with chromosome aberration (mouse bone marrow cells; Low-does (252.3) mg/kg): 7
- Chromosome aberration (%) (mouse bone marrow cells; Medium-does (504.6) mg/kg): 1.6 ± 0.89%
- Number of cells with chromosome aberration (mouse bone marrow cells; Medium-does (504.6) mg/kg): 8
- PCE micronucleus (‰) [2, 3]: 2.2 ± 0.8 ‰
- PCE/RBC [2, 3]: 0.72 ± 0.08
- PCE micronucleus (‰) [2, 4]: 1.2 ± 0.4 ‰
- PCE/RBC [2, 4]: 1.09 ± 0.06
- PCE micronucleus (‰) [2, 5]: 0.8 ± 0.4 ‰
- PCE/RBC [2, 5]: 1.06 ± 0.07
- PCE micronucleus (‰) [2, 6]: 0.8 ± 0.8 ‰
- PCE/RBC [2, 6]: 0.76 ± 0.03
- PCE micronucleus (‰) [2, 7]: 0.6 ± 0.5 ‰
- PCE/RBC [2, 7]: 1.07 ± 0.09
- PCE micronucleus (‰) [2, 8]: 1 ± 0.7 ‰
- PCE/RBC [2, 8]: 1.08 ± 0.11
- micronucleus ratio compared with the negative control group ([2]; high-dose (1009.1 mg/kg), p < 0.01): significant difference
- micronucleus ratio compared with the negative control group ([2]; medium (504.6 mg/kg) and low-dose (252.3 mg/kg), p > 0.05): no significant difference
